Results: patent publication US7705025B2, “Histamine H3 receptor agents, preparation and therapeutic uses” (Eli Lilly and Company, priority 2004, dated 2010)

Molecular target: T1, human histamine 3 receptor (Homo sapiens, UniProt Q9Y5N1)
T1 construct: expressed in transfected cells; membranes
Assay: H3R binding assay (competitive inhibition SPA, [3H] α methylhistamine)
Details: membranes of HEK293 clone H3R8
Excerpt: The compounds of the present invention can readily be evaluated by using a competitive inhibition Scintillation Proximity Assay (SPA) based on a H3R binding assay using [3H] α methylhistamine as ligand. Stable cell lines, including but not limited to HEK can be transfected with cDNA coding for H3R to prepare membranes used for the binding assay. The technique is illustrated below (Preparation of Histamine Receptor Subtype Membranes) for the histamine receptor subtypes.
cDNA for the human histamine 1 receptor (H1R) was cloned into a mammalian expression vector containing the CMV promoter (pcDNA3.1(+), Invitogen) and transfected into HEK293 cells using the FuGENE Tranfection Reagent (Roche Diagnostics Corporation). Transfected cells were selected using G418 (500 μ/mL). Colonies that survived selection were grown and tested for histamine binding to cells grown in 96-well dishes using a scintillation proximity assay (SPA) based radioligand binding assay. Briefly, cells, representing individual selected clones, were grown as confluent monolayers in 96-well dishes (Costar Clear Bottom Plates, #3632) by seeding wells with 25,000 cells and growing for 48 hours (37° C., 5% CO2). […] Plates were counted in a Wallac Trilux 1450 Microbeta scintillation counter. […]
cDNA for the human histamine 3 receptor was cloned and expressed as described in (A. Preparation H1R membranes), above. […]

T1 sequence (Q9Y5N1 whole entry): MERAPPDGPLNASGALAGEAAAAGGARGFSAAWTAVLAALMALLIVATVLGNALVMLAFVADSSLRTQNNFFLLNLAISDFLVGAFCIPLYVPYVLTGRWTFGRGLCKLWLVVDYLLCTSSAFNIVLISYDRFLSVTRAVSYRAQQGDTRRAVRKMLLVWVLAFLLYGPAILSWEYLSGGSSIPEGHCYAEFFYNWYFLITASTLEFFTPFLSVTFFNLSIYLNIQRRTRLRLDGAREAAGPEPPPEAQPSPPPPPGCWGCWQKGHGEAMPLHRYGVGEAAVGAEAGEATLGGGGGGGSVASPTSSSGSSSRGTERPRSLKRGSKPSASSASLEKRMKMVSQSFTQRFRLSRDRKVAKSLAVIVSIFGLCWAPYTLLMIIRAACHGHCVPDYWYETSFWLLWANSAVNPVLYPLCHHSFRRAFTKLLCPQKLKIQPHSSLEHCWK

Ki	Structure (SMILES)
13.8 nM	O=C(c1ccc(-c2cccs2)nc1)N1CCC[C@H]1CN1CCCC1
3.1 nM	O=C(c1ccc(-c2nc(-c3cccnc3)cs2)cc1)N1CCC[C@H]1CN1CCCC1
